Laboratory results published in US6977264B2, “Substituted piperidines and methods of use” (Amgen Inc., priority 2001, dated 2005).
Structures can show the parent of a compound that is named as a salt.

| Compound | melting point |
| --- | --- |
| Cl.O=C(N[C@H](Cc1ccc(Cl)cc1)C(=O)N1CCC(c2ccccc2-n2cc[nH]c2=O)CC1)[C@@H]1Cc2ccccc2CN1 | 191 °C (dec.) |
| CS(=O)(=O)N(CC1CC1)c1ccccc1C1CCN(C(=O)[C@@H](Cc2ccc(Cl)cc2)NC(=O)[C@@H]2Cc3ccccc3CN2)CC1 (as salt: HCl) (hydrate or solvate) [Example 11, N-[(1R)-1-[(4-Chlorophenyl)methyl]-2-(4-{2-[(cyclopropylmethyl)-(methylsulfonyl)amino]-phenyl}piperidyl)-2-oxoethyl]((3S)(3-1,2,3,4-tetrahydroisoquinolyl))carboxamide] | 190 to 200 °C |
| CS(=O)(=O)Nc1ccccc1C1CCN(C(=O)[C@@H](Cc2ccc(Cl)c(Cl)c2)NC(=O)[C@@H]2Cc3ccccc3CN2)CC1 (as salt: HCl) [Example 10, ((3S)(3-1,2,3,4-Tetrahydroisoquinolyl))-N-[(1R)-1-[(3,4-dichlorophenyl)methyl]-2-(4-{2-[(methylsulfonyl)-amino]phenyl}piperidyl)-2-oxoethyl]carboxamide] | 181 °C (dec.) |
| Cn1ccn(-c2ccccc2C2CCN(C(=O)[C@@H](Cc3ccc(Cl)cc3)NC(=O)[C@@H]3Cc4ccccc4CN3)CC2)c1=O (as salt: HCl) [Example 17, ((3S)(3-1,2,3,4-Tetrahydroisoquinolyl))-N-((1R)-1-[(4-chlorophenyl)methyl]-2-{4-[2-(3-methyl-2-oxo(4-imidazolinyl))phenyl]piperidyl}-2-oxoethyl)carboxamide] | 178 °C (dec.) |
